In ChEMBL document CHEMBL4483862, “Open-source discovery of chemical leads for next-generation chemoprotective antimalarials” (2018):

Test system: Plasmodium berghei
Experiment: Luciferase/luciferin-expressing antifolate-resistant parasites were used to infect a culture of HepG2 cells that were pre-incubated with compounds. Infected hepatocytes emit light due to the luciferase reaction. Assay results are presented as the percent inhibition of light emission compared to control. […]
Type: functional
Conditions: sporozoite; for IC90: read-out: LUCIFERASE INFECTION ASSAY - IC90
[1] = read-out: LUCIFERASE INFECTION ASSAY - IC50

Row | Structure (SMILES) | IC90 [µM] | IC50 [1] [µM] | also measured
1 | O=C(Nc1nc2ccccn2c1C(=O)NC1CCCC1)c1ccc(F)c(F)c1 | 3.18 |  | IC50 (FFLUC_HILL_SLOPE 26.5, FFLUC_R_SQUARED 0.0302, HEPG2TOX_HILL_SLOPE 1.05, HEPG2TOX_R_SQUARED 0.954, PBLUC_HILL_SLOPE 2.57, PBLUC_R_SQUARED 0.624, read-out: LUCIFERASE INFECTION ASSAY - IC50): 1.35 µM
2 | Clc1cncc2c1Sc1ccccc1N2 | > 14.1 | 14 | 
3 | O=C1N(Cc2ccccc2)c2ccccc2C12Oc1ccc(Br)cc1-c1cc(-c3ccccc3)nn12 (stereo unspecified) | > 10 | 9.29 | 
4 | CCCc1oc2c(cc(NS(=O)(=O)c3ccc(Cl)cc3)c3ccccc32)c1C(=O)OCC | > 10 |  | IC50 (PBLUC_HILL_SLOPE 2.19, PBLUC_R_SQUARED 0.549, read-out: LUCIFERASE INFECTION ASSAY - IC50): 5.77 µM
5 | Clc1ccc(-c2csc(NCC3CCCO3)n2)cc1 (stereo unspecified) | > 11.2 | > 11.2 | 
6 | Cc1ccc(-c2nc(CSc3nc(C)c(C)n3CC3CCCO3)co2)c(C)c1 (stereo unspecified) | > 10 |  | IC50 (FFLUC_HILL_SLOPE 1.24, FFLUC_R_SQUARED 0.0904, HEPG2TOX_HILL_SLOPE 3.11, HEPG2TOX_R_SQUARED 0.82, read-out: LUCIFERASE INFECTION ASSAY - IC50): > 10 µM
7 | Cc1ccccc1OCCN(C)C(=O)NCCc1cccs1 | 4.09 |  | IC50 (HEPG2TOX_HILL_SLOPE 3.22, HEPG2TOX_R_SQUARED 0.951, PBLUC_HILL_SLOPE 11.1, PBLUC_R_SQUARED 0.17, read-out: LUCIFERASE INFECTION ASSAY - IC50): 3.35 µM
8 | COc1cccc(CN2CCC2(C)C(=O)Nc2ccccc2Cc2ccccc2)c1OC (stereo unspecified) | > 7.66 | > 7.66 | 
9 | c1ccc(-c2cn3nc(NCc4cccs4)sc3n2)cc1 | > 10 |  | IC50 (PBLUC_HILL_SLOPE 2.88, PBLUC_R_SQUARED 0.313, read-out: LUCIFERASE INFECTION ASSAY - IC50): 4.87 µM
10 | CCC(=O)NC1=C(Nc2ccc(SC(F)F)cc2)C(=O)c2ccccc2C1=O | 4.5 |  | IC50 (HEPG2TOX_HILL_SLOPE 7.23, HEPG2TOX_R_SQUARED 0.37, PBLUC_HILL_SLOPE 1.96, PBLUC_R_SQUARED 0.792, read-out: LUCIFERASE INFECTION ASSAY - IC50): 1.47 µM
11 | Cc1cc(N(CCC#N)C(=O)Cn2ncc(Cl)c(Cl)c2=O)ccc1Cl | 5.85 | 5.68 | 
12 | Cc1c(C)c(C)c2[nH]c(S)nc2c1C | > 16 |  | IC50 (HEPG2TOX_HILL_SLOPE 6.45, HEPG2TOX_R_SQUARED 0.505, PBLUC_HILL_SLOPE 19.5, PBLUC_R_SQUARED 0.258, read-out: LUCIFERASE INFECTION ASSAY - IC50): 15.4 µM
13 | N#Cc1c(/N=C/c2ccccc2C(F)(F)F)sc2c1CCCCC2 | 7.41 |  | IC50 (FFLUC_HILL_SLOPE 1.19, FFLUC_R_SQUARED 0.84, PBLUC_HILL_SLOPE 1.29, PBLUC_R_SQUARED 0.776, read-out: LUCIFERASE INFECTION ASSAY - IC50): 1.35 µM
14 | CC(C)c1ccc(NC(=O)[C@@H]2Cc3ccccc3CN2C(=O)OC(C)(C)C)cc1 | > 8.36 |  | IC50 (PBLUC_HILL_SLOPE 2.17, PBLUC_R_SQUARED 0.544, read-out: LUCIFERASE INFECTION ASSAY - IC50): 3.19 µM
15 | COc1ccc(OCCn2nc(-c3cccs3)c3ccccc3c2=O)cc1 | > 10 | 3.71 | 
16 | Cc1ncc(S(=O)(=O)Cc2ccco2)c(N)n1 | > 13 | > 13 | 
17 | Cc1cc(C)c(-c2csc(NC(=O)Cc3ccccc3)n2)c(C)c1 | 3.56 | 2.81 | 
18 | c1ccc(Oc2cccc(-c3ccc4nnc(-c5ccccc5)n4c3)c2)cc1 | > 10 | > 10 | 
19 | O=C1Nc2ccc(Br)cc2/C1=N\N=C\c1cc([N+](=O)[O-])ccc1OC(F)F | > 10 | > 10 | 
20 | OC(CNCC1COc2ccccc2C1)COc1ccc(Cl)cc1Cl (stereo unspecified) | > 10 | > 10 | 
21 | CC(Sc1nc2ncccn2n1)C(=O)N1c2ccccc2CC1C (stereo unspecified) | > 10 |  | IC50 (FFLUC_HILL_SLOPE 10.4, FFLUC_R_SQUARED 0.228, read-out: LUCIFERASE INFECTION ASSAY - IC50): > 10 µM
22 | CC(C)NC(=O)c1c(NC(=O)c2cccc(F)c2)nc2ccccn12 | 7.41 |  | IC50 (HEPG2TOX_HILL_SLOPE 3.53, HEPG2TOX_R_SQUARED 0.8, PBLUC_HILL_SLOPE 29.8, PBLUC_R_SQUARED 0.0967, read-out: LUCIFERASE INFECTION ASSAY - IC50): 6.88 µM
23 | COC1CC(O[C@H]2CC[C@]3(C)C4CC[C@]5(C)[C@@H](C6=CC(=O)OC6)CC[C@]5(O)[C@@H]4CC[C@]3(O)C2)OC(C)C1O (stereo partly specified) | 0.177 |  | IC50 (HEPG2TOX_HILL_SLOPE 1.6, HEPG2TOX_R_SQUARED 0.898, PBLUC_HILL_SLOPE 2.36, PBLUC_R_SQUARED 0.616, read-out: LUCIFERASE INFECTION ASSAY - IC50): 0.0698 µM
24 | Cc1nc2ccccc2n1CCNC(=O)N1CCN(c2ccc(C(F)(F)F)cc2[N+](=O)[O-])CC1 | > 10 | > 10 | 

Row | Structure (SMILES) | IC90 [µM] | IC50 [1] [µM] | also measured
25 | Cc1cc(I)ccc1N1C(=O)C=CC1=O | > 10.5 | 5.55 | 
26 | COc1ccc(/C=C/C#N)c(Cl)c1OC | > 14.8 |  | IC50 (HEPG2TOX_HILL_SLOPE 1.17, HEPG2TOX_R_SQUARED 0.985, PBLUC_HILL_SLOPE 2.95, PBLUC_R_SQUARED 0.12, read-out: LUCIFERASE INFECTION ASSAY - IC50): 11.3 µM
27 | Oc1cccc(-c2nccc3n[nH]c(-c4cccc(F)c4)c23)c1 | > 10 |  | IC50 (PBLUC_HILL_SLOPE 3.75, PBLUC_R_SQUARED 0.113, read-out: LUCIFERASE INFECTION ASSAY - IC50): 6.03 µM
28 | CCOC(=O)c1ccc(N2CCN(C(C)c3nc(C(C)C)no3)CC2)nc1 (stereo unspecified) | > 10 |  | IC50 (HEPG2TOX_HILL_SLOPE 2.09, HEPG2TOX_R_SQUARED 0.987, PBLUC_HILL_SLOPE 1.97, PBLUC_R_SQUARED 0.365, read-out: LUCIFERASE INFECTION ASSAY - IC50): 4.25 µM
29 | COCCCNC(=O)Cc1ccc(S(=O)(=O)N2CCOCC2)s1 | > 10 | > 10 | 
30 | CC(C)(C)c1ccc(C(=O)Nc2ccc(Oc3cccnc3)nc2)cc1 | > 9.5 |  | IC50 (HEPG2TOX_HILL_SLOPE 1.03, HEPG2TOX_R_SQUARED 0.91, PBLUC_HILL_SLOPE 1.13, PBLUC_R_SQUARED 0.427, read-out: LUCIFERASE INFECTION ASSAY - IC50): 3.06 µM
31 | CN(C1CCCCC1)S(=O)(=O)c1ccc(NC(=S)NC(=O)c2ccco2)cc1 | > 10 |  | IC50 (FFLUC_HILL_SLOPE 2.51, FFLUC_R_SQUARED 0.131, read-out: LUCIFERASE INFECTION ASSAY - IC50): > 10 µM
32 | CC(C)(C)c1ccc(-c2nnc(SCc3ccccc3)n2-c2cccc(C(F)(F)F)c2)cc1 | > 7.06 |  | IC50 (PBLUC_HILL_SLOPE 9.35, PBLUC_R_SQUARED 0.201, read-out: LUCIFERASE INFECTION ASSAY - IC50): 6.61 µM
33 | CCOC(=O)c1c(C)nc(-c2ccco2)nc1SCc1ncc(-c2ccc(F)cc2)o1 | 3.58 |  | IC50 (PBLUC_HILL_SLOPE 11.1, PBLUC_R_SQUARED 0.631, read-out: LUCIFERASE INFECTION ASSAY - IC50): 2.94 µM
34 | CC(=O)CSc1nnc(-c2ccc(C(C)(C)C)cc2)n1-c1ccc(Cl)cc1 | > 8.25 |  | IC50 (PBLUC_HILL_SLOPE 12.6, PBLUC_R_SQUARED 0.0257, read-out: LUCIFERASE INFECTION ASSAY - IC50): 7.82 µM
35 | c1ccc(NCc2ccc(-c3cn4c(-c5ccncc5)cnc4cn3)cc2)cc1 | > 8.74 | > 8.74 | 
36 | CCc1ccc(S(=O)(=O)Oc2ccccc2NC(C)=O)cc1 | > 10 | > 10 | 
37 | CC(C)c1cccc(-c2ccc3nnc(-c4cccc(Cl)c4)n3c2)c1 | > 10 |  | IC50 (PBLUC_HILL_SLOPE 4.48, PBLUC_R_SQUARED 0.207, read-out: LUCIFERASE INFECTION ASSAY - IC50): 6.48 µM
38 | Nc1cc(-c2ccc(Br)s2)n[nH]1 | > 10 | > 10 | 
39 | O=C(Nc1nc2c(s1)CCCC2)c1ccc(Nc2ccccc2)c([N+](=O)[O-])c1 | > 10 | > 10 | 
40 | CCOC(=O)NC(=O)/C(C#N)=N/Nc1ccccc1 | 0.557 |  | IC50 (PBLUC_HILL_SLOPE 2.22, PBLUC_R_SQUARED 0.599, read-out: LUCIFERASE INFECTION ASSAY - IC50): 0.207 µM
41 | COc1ccc(C2c3ccsc3CCN2S(=O)(=O)c2ccc(F)c(Cl)c2)cc1 (stereo unspecified) | > 7.54 |  | IC50 (PBLUC_HILL_SLOPE 1.37, PBLUC_R_SQUARED 0.631, read-out: LUCIFERASE INFECTION ASSAY - IC50): 3.09 µM
42 | FC(F)(F)/C(=N\C1(C(Cl)(Cl)Cl)Oc2ccccc2O1)NCc1ccco1 | > 10 | > 10 | 
43 | O=C(Nc1ccccc1SCc1ccsc1)C1CCCCC1 | > 10 | > 10 | 
44 | CSc1sc(NC(=O)Nc2ccc(Cl)cc2)cc1S(=O)(=O)C(C)C | > 8.15 |  | IC50 (PBLUC_HILL_SLOPE 7.91, PBLUC_R_SQUARED 0.357, read-out: LUCIFERASE INFECTION ASSAY - IC50): 6.79 µM
45 | CN(C)c1ccc(CNc2nccc3nc(-c4ccc(F)c(F)c4)[nH]c23)cc1 | 9.24 |  | IC50 (HEPG2TOX_HILL_SLOPE 2.98, HEPG2TOX_R_SQUARED 0.951, PBLUC_HILL_SLOPE 0.962, PBLUC_R_SQUARED 0.864, read-out: LUCIFERASE INFECTION ASSAY - IC50): 0.941 µM
46 | CNc1nc2cnc(Nc3ccccc3Cl)cc2n1CC1CC1 | > 10 | > 10 | 
47 | CCN(CC)S(=O)(=O)c1cccc(NC(=O)c2sc(Nc3ccc(C)cc3C)c(C(=O)NC(C)COC)c2N)c1 (stereo unspecified) | > 10 |  | IC50 (FFLUC_HILL_SLOPE 0.973, FFLUC_R_SQUARED 0.376, read-out: LUCIFERASE INFECTION ASSAY - IC50): > 10 µM
48 | CCc1ccc2nc(NC(=O)CN(C)C(=O)c3ccco3)sc2c1 | > 10 | > 10 | 
